# Laboratory results published in patent US20190365799A1, “THERAPIES FOR THE TREATMENT OF LIDOCAINE-INEFFECTIVE AND HYPOKALEMIC CONDITIONS” (AlkaliDx, Inc., priority 2016, published 2019).
# “Also recorded” adds a separate entry of the source.
# Key:
# [1] = system: sodium channel in the sensory neurons; conditions: local anesthesia; Rozanski et al. 1988, Nakai et al. 2000; cited from earlier work
# [2] = oral potassium salt therapy, general statement; cited from earlier work
# [3] = system: patients with Lidocaine-Ineffective Conditions; assay: Off-label treatment of patients with lidocaine-ineffective conditions with potassium or potassium-elevating drugs (clinical experience, patient reports); assay type: in vivo, human
# Experimental: The condition is a chronic one, and patients benefit from increasing the serum potassium both prophylactically and acutely. I have discovered that patients with such “Lidocaine-Ineffective Conditions” that are treated with the compositions and methods of this invention (e.g., potassium supplementation or potassium-elevating agents) derive a significant therapeutic benefit.
# Based on our research and discussions with us, patients with lidocaine-ineffective conditions have been treated with potassium and potassium-elevating drugs under the care of their personal physician in off-label use.
# [4] = clinical experience with 15 patients, potassium supplementation
smiles,measurement,setting,value
CCN(CC)CC(=O)Nc1c(C)cccc1C [lidocaine],share of the population for which lidocaine is ineffective,[1],2.7-11%
[Cl-].[K+] [potassium chloride],gastric tolerability,[2],usually results in stomach upset and gastric pain; also recorded: regularly causes gastric upset
O=C([O-])[C@H](O)[C@@H](O)[C@H](O)[C@H](O)CO.[K+] [potassium gluconate],gastric tolerability,[2],better tolerated
[K+] [potassium],nervous system sensitivity,[3]; [4],restore the normal level of nervous system sensitivity
same,symptoms of ADHD,[3]; [4],suppresses the symptoms of ADHD
same,patient-reported effect of treatment,"[3]; off-label use under care of personal physician, anecdotal patient reports",nothing short of miraculous; also recorded: stopped fighting with their teacher
same,persistence of effect over time,"[3]; off-label use, same dose, middle-aged person","continued to be as effective, at the same dose, after many months"
